Values after ≈ are worked out from the molar mass of the structure shown. One block for each compound: values may come before it. Active and inactive are the calls of the source. The calls are words filed in the database; no cut-off is given here.
Experiments:
[1] = system: Pseudomonas aeruginosa; assay: Antibacterial activity against Pseudomonas aeruginosa ATCC 27853 by broth microdilution method; type: functional
[2] = system: Staphylococcus aureus; assay: Antibacterial activity against Staphylococcus aureus ATCC 29213 by broth microdilution method; type: functional
[3] = system: Candida albicans; assay: […] activity against Candida albicans ATCC 90028 by broth microdilution method; type: functional
[4] = system: Staphylococcus aureus; assay: Bactericidal activity against Staphylococcus aureus ATCC 29213 at 16 ug/ml measured at 6 hrs by time kill assay (reference value: 5.65 to 9.57); type: functional; conditions: dose 16 µg/ml
[5] = system: Staphylococcus aureus; assay: Bactericidal activity against Staphylococcus aureus ATCC 29213 at 16 ug/ml measured at 3 hrs by time kill assay (reference value: 5.65 to 9.57); type: functional; conditions: dose 16 µg/ml
[6] = system: Staphylococcus epidermidis; assay: Inhibition of biofilm formation in Staphylococcus epidermidis ATCC 35984 at 8 to 32 ug/ml by crystal violet staining based assay relative to control; type: functional, organism-based; conditions: dose microg/ml 8-32
[7] = system: Staphylococcus epidermidis; assay: Antibacterial activity against Staphylococcus epidermidis ATCC 35984 by broth microdilution method; type: functional
[8] = system: Staphylococcus epidermidis; assay: Inhibition of biofilm formation in Staphylococcus epidermidis ATCC 35984 at 64 ug/ml by crystal violet staining based assay relative to control; type: functional
[9] = Cytotoxicity against human HaCaT cells assessed as reduction in cell viability at 16 ug/ml incubated for 24 hrs by MTT assay; type: cell-based; conditions: at 16 µg/mL, read-out: INH
[10] = system: Staphylococcus aureus; assay: Bactericidal activity against Staphylococcus aureus ATCC 29213 at 16 ug/ml measured at 24 hrs by time kill assay (reference value: 5.65 to 9.57); type: functional; conditions: dose 16 µg/ml
[11] = system: Staphylococcus aureus; assay: Bactericidal activity against Staphylococcus aureus ATCC 29213 at 16 ug/ml measured at 0 hrs by time kill assay (reference value: 5.65 to 9.57); type: functional; conditions: dose 16 µg/ml
[12] = system: Staphylococcus aureus; assay: Bactericidal activity against Staphylococcus aureus ATCC 29213 at 16 ug/ml measured at 1 hr by time kill assay (reference value: 5.65 to 9.57); type: functional; conditions: dose 16 µg/ml
[13] = system: Staphylococcus epidermidis; assay: Induction of preformed biofilm disruption in Staphylococcus epidermidis ATCC 35984 at 64 ug/ml by crystal violet staining based assay relative to control; type: functional; conditions: dose 64.0 µg/ml
[14] = system: Staphylococcus aureus; assay: Bactericidal activity against Staphylococcus aureus ATCC 29213 at 32 ug/ml measured at 1 hr by time kill assay (reference value: 5.65 to 9.57); type: functional; conditions: dose 32 µg/ml
[15] = system: Staphylococcus aureus; assay: Bactericidal activity against Staphylococcus aureus ATCC 29213 at 32 ug/ml measured at 3 hrs by time kill assay (reference value: 5.65 to 9.57); type: functional; conditions: dose 32 µg/ml
[16] = system: Staphylococcus aureus; assay: Bactericidal activity against Staphylococcus aureus ATCC 29213 at 32 ug/ml measured at 24 hrs by time kill assay (reference value: 5.65 to 9.57); type: functional; conditions: dose 32 µg/ml
[17] = Cytotoxicity against human HaCaT cells assessed as reduction in cell viability at 32 ug/ml incubated for 24 hrs by MTT assay; type: cell-based; conditions: at 32 µg/mL, read-out: INH
[18] = system: Staphylococcus aureus; assay: Bactericidal activity against Staphylococcus aureus ATCC 29213 at 32 ug/ml measured at 0 hrs by time kill assay (reference value: 5.65 to 9.57); type: functional; conditions: dose 32 µg/ml
[19] = system: Staphylococcus aureus; assay: Bactericidal activity against Staphylococcus aureus ATCC 29213 at 32 ug/ml measured at 6 hrs by time kill assay (reference value: 5.65 to 9.57); type: functional; conditions: dose 32 µg/ml

Compound: COc1ccc(CC2=C(Cc3ccc(OC)cc3)C(O)OC2=O)cc1 (configuration not stated)
- MIC [1]: > 128 µg/mL
- MIC [2]: > 128 µg/mL

Compound: C[C@@H]1[C@H](O)[C@@H](C)/C=C/C=C/C=C/C=C/C=C/C=C/C=C/[C@H](O[C@@H]2O[C@H](C)[C@@H](O)[C@H](N)[C@@H]2O)C[C@@H]2O[C@](O)(C[C@@H](O)C[C@@H](O)[C@H](O)CC[C@@H](O)C[C@@H](O)CC(=O)O[C@H]1C)C[C@H](O)[C@H]2C(=O)O [AMPHOTERICIN B]
- MIC [3]: 0.25 µg/mL (≈ 0.271 µM)

Compound: COc1ccc(CC23OC2OC2OC23Cc2ccc(OC)cc2)cc1 (configuration not stated)
- MIC [1]: > 128 µg/mL
- MIC [2]: > 128 µg/mL

Compound: CC(=O)Oc1ccc(Cc2cocc2Cc2ccc(OC(C)=O)cc2)cc1
- MIC [1]: > 128 µg/mL
- MIC [2]: > 128 µg/mL

Compound: NC[C@H]1O[C@H](O[C@H]2[C@H](O)[C@@H](O[C@H]3O[C@H](CO)[C@@H](O)[C@H](N)[C@H]3O)[C@H](N)C[C@@H]2N)[C@H](N)C[C@@H]1O [TOBRAMYCIN]
- MIC [1]: 4 µg/mL (≈ 8.56 µM)

Compound: Oc1ccc(Cc2cocc2Cc2ccc(O)cc2)cc1
- Activity [14]: 5.77 log10CFU/ml
- MIC [1]: > 128 µg/mL
- Activity [15]: 6.38 log10CFU/ml
- inhibition [6]: inactive
- Activity [16]: 8.86 log10CFU/ml
- MIC [2]: 32 µg/mL (≈ 114 µM)
- MIC [7]: 32 µg/mL (≈ 114 µM)
- inhibition at 64 µg/mL [8]: 33%
- cytotoxicity at 24 h, 16 ug/ml [9]: 25%
- MIC [3]: 32 µg/mL (≈ 114 µM)
- cytotoxicity at 24 h, 32 ug/ml [17]: 40%
- inhibition [13]: 25%
- Activity [18]: 5.74 log10CFU/ml
- Activity [19]: 7.77 log10CFU/ml

Compound: O=C1OC(O)C(Cc2ccc(O)cc2)=C1Cc1ccc(O)cc1 (configuration not stated)
- MIC [1]: > 128 µg/mL
- MIC [2]: > 128 µg/mL

Compound: COc1ccc(CC2C(=O)OC3OC32Cc2ccc(OC)cc2)cc1 (configuration not stated)
- MIC [1]: > 128 µg/mL
- MIC [2]: > 128 µg/mL

Now from value to compound, other results behind:

- MIC [1]: > 128 µg/mL
- MIC [2]: 16 µg/mL (≈ 54.4 µM)
- MIC [7]: 16 µg/mL (≈ 54.4 µM)
- MIC [3]: 16 µg/mL (≈ 54.4 µM)
Compound: COc1ccc(Cc2cocc2Cc2ccc(O)cc2)cc1
- Activity [4]: 1.35 log10CFU/ml
- Activity [5]: 1.6 log10CFU/ml
- inhibition [6]: inactive
- inhibition at 64 µg/mL [8]: 33%
- cytotoxicity at 24 h, 16 ug/ml [9]: 50%
- Activity [10]: 1.24 log10CFU/ml
- Activity [11]: 5.75 log10CFU/ml
- Activity [12]: 2.2 log10CFU/ml
- inhibition [13]: 25%

- MIC [1]: > 128 µg/mL
- MIC [2]: 16 µg/mL (≈ 54.4 µM)
Compound: COc1ccc(Cc2cocc2Cc2ccccc2O)cc1
- Activity [4]: 1.61 log10CFU/ml
- Activity [5]: 1.94 log10CFU/ml
- Activity [10]: 1.56 log10CFU/ml
- Activity [11]: 5.7 log10CFU/ml
- Activity [12]: 2.47 log10CFU/ml

- MIC [1]: > 128 µg/mL
- MIC [2]: > 128 µg/mL
Compound: COc1ccc(Cc2cocc2Cc2ccccc2OC)cc1

- MIC [1]: > 128 µg/mL
- MIC [2]: > 128 µg/mL
Compound: COc1ccc(Cc2cocc2Cc2ccc(OC)cc2)cc1

- MIC [1]: > 128 µg/mL
- MIC [2]: 64 µg/mL (≈ 228 µM)
Compound: Oc1ccc(Cc2cocc2Cc2ccccc2O)cc1
